Data from patent publication US12600710B2, “Beta-catenin and b-cell lymphoma 9 (BCL9) inhibitors” (H. LEE MOFFITT CANCER CENTER AND RESEARCH INSTITUTE, INC., priority 2018, dated 2026).
Where a name gives a salt, the structure may show the parent alone. Read-outs that look alike come from different tables or passages of the source.

Biological target: T1, β-catenin/BCL9 PPI (Homo sapiens, UniProt P35222)
T1 construct: Wild-type full-length β-catenin were cloned into a pET-28b vector carrying a C-terminal 6×histidine; made in house; host or cells: Escherichia coli BL21 DE3 (β-catenin); BCL9 peptide chemically synthesized
T1 sequence (P35222 1-781): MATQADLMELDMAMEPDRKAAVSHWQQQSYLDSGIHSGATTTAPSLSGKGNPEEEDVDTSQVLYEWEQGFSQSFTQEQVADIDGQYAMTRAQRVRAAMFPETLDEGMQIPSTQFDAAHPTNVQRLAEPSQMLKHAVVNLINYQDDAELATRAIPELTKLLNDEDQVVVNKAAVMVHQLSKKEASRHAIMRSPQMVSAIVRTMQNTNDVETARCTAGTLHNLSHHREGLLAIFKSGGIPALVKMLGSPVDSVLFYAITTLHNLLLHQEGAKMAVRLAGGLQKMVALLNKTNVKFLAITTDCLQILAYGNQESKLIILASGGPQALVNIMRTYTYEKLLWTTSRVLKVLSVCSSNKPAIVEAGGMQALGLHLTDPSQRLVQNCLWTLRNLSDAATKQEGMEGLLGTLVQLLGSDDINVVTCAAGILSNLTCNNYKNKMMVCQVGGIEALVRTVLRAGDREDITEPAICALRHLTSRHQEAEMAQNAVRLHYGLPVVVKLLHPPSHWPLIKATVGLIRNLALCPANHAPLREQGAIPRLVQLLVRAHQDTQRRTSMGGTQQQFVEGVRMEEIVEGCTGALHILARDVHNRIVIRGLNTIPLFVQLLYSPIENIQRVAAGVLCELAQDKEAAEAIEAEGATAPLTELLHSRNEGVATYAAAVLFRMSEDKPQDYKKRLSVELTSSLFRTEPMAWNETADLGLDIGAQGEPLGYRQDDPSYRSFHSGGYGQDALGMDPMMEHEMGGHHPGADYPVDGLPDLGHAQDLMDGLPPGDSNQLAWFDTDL
Experiment: AlphaScreen competitive inhibition assay of the β-catenin/BCL9 PPI
Format: binding
Details: mean ± SD, triplicate, Ki derived from IC50 (Nikolovska-Coleska method)
Protocol: AlphaScreen competitive inhibition assays. For the competitive inhibition assays of the β-catenin/BCL9 PPI, the negative control (equivalent to 0% inhibition) refers to 5.0 nM of biotinylated BCL9, 40 nM of His6-tagged β-catenin, and 10 μg/mL of donor and acceptor beads in a final volume of 25 μL assay buffer, but no tested inhibitor present. The positive control (equivalent to 100% inhibition) refers to 5.0 nM of biotinylated BCL9 and 10 μg/mL of donor and acceptor beads in a final volume of 25 μL assay buffer.
For the β-catenin/BCL9 assay, 5 nM of biotinylated BCL9 and 40 nM of His6-tagged β-catenin were incubated in assay buffer at 4° C. for 30 min. Different concentrations of the tested inhibitor were added and incubated in 20 μL assay buffer at 4° C. for another 1 h. All of the above assay plates were covered and gently mixed on an orbital shaker. The donor and acceptor beads were then added to the plates to a final concentration of 10 μg/mL in 25 μL assay buffer. The mixture was incubated for 1 h at 4° C. before detection. The IC50 value was determined by nonlinear least-square analysis of GraphPad Prism 5.0. The Ki values were derived from the IC50 values using a method reported by Nikolovska-Coleska et al (Nikolovska-Coleska, Z.; Wang, R.; Fang, X.; Pan, H.; Tomita, Y.; Li, P.; Roller, P. P.; Krajewski, K.; Saito, N. G.; Stuckey, J. A.; Wang, S. Development and optimization of a binding assay for the XIAP BIR3 domain using fluorescence polarization. Anal. Biochem. 2004, 332, 261-273). The assays were conducted under the conditions required by Nikolovska-Coleska et al.'s equation for determining the Ki values. All of the experiments were performed in triplicate. The results were expressed as mean±standard deviation.

[1] = Example 2 compounds, experiment 1, read-out: Ki (μM ± SD) experiment 1
[2] = Example 2 compounds, experiment 2, read-out: Ki (μM ± SD) experiment 2
[3] = Example 1 compounds, experiment 1, read-out: Ki (μM ± SD) experiment 1
[4] = Example 1 compounds, experiment 2, read-out: Ki (μM ± SD) experiment 2
[5] = Example 1 compounds, experiment 3, read-out: Ki (μM ± SD) experiment 3
[6] = Example 1 compounds, experiment 4, read-out: Ki (μM ± SD) experiment 4

| Compound | Ki [1] | Ki [2] | Ki [5] | Ki [6] | further results |
| --- | --- | --- | --- | --- | --- |
| NCCC(=O)NCc1cc(F)cc(OC2CCN(C(=O)c3ccc(O[C@H]4CCNC4)c(C4CCCCC4)c3)CC2)c1 [Compound 7, 3-Amino-N-(3-((1-(3-cyclohexyl-4-(pyrrolidin-3-yloxy)benzoyl)piperidin-4-yl)oxy)-5-fluorobenzyl) propanamide dihydrochloride] | 84.7 ± 11.8 µM | 125 ± 13.2 µM |  |  |  |
| NCc1cn(-c2cc(F)cc(C(=O)N3CCN(C(=O)c4ccc(O[C@H]5CCNC5)c(C5CCC(C(F)(F)F)CC5)c4)CC3)c2)nn1 (stereo partly drawn) [Compound 31, (S)-(4-(3-(4-(aminomethyl)-1H-1,2,3-triazol-1-yl)-5-fluorobenzoyl)piperazin-1-yl) (4-(pyrrolidin-3-yloxy)-3-(4-(trifluoromethyl)cyclohexyl)phenyl) methanone ditrifluoroacetate] |  |  |  |  | Ki [3]: > 350 µM; Ki [4]: 610 ± 91 µM |
| CCNC(=O)C1CN(C(=O)c2cc(F)cc(NC(C)=O)c2)CCN1C(=O)c1ccc(O[C@H]2CCNC2)c(C2CCCCC2)c1 (stereo partly drawn) [Compound 19, 4-(3-Acetamido-5-fluorobenzoyl)-1-(3-cyclohexyl-4-(((S)-pyrrolidin-3-yl)oxy)benzoyl)-N-ethylpiperazine-2-carboxamide trifluoroacetate] |  |  | 110 ± 16 µM | 240 ± 27 µM |  |
| CNC(=O)C1CN(C(=O)c2cc(F)cc(NC(C)=O)c2)CCN1C(=O)c1ccc(O[C@H]2CCNC2)c(C2CCCCC2)c1 (stereo partly drawn) [Compound 17, 4-(3-Acetamido-5-fluorobenzoyl)-1-(3-cyclohexyl-4-(((S)-pyrrolidin-3-yl)oxy)benzoyl)-N-methylpiperazine-2-carboxamide trifluoroacetate] |  |  | 200 ± 20 µM | 140 ± 17 µM |  |
| NCc1cn(-c2cc(F)cc(C(=O)N3CCN(C(=O)c4ccc(O[C@H]5CCNC5)c(C5CCCCC5)c4)CC3)c2)nn1 [Compound 30, (S)-(4-(3-(4-(aminomethyl)-1H-1,2,3-triazol-1-yl)-5-fluorobenzoyl)piperazin-1-yl) (3-cyclohexyl-4-(pyrrolidin-3-yloxy)phenyl) methanone ditrifluoroacetate] |  |  |  |  | Ki [3]: 110 ± 15 µM; Ki [4]: 560 ± 71 µM |
| O=C(c1ccc(O[C@H]2CCNC2)c(C2CCCCC2)c1)N1CCC(Oc2cc(F)cc(N3CCNCC3=O)c2)CC1 [Compound 2, (S)-1-(3-((1-(3-cyclohexyl-4-(pyrrolidin-3-yloxy)benzoyl)piperidin-4-yl)oxy)-5-fluorophenyl) piperazin-2-one dihydrochloride] | 496 ± 39.7 µM | > 90 µM |  |  |  |
| NCc1cn(Cc2cc(F)cc(OC3CCN(C(=O)c4ccc(O[C@H]5CCNC5)c(C5CCCCC5)c4)CC3)c2)nn1 [Compound 3, (S)-(4-(3-((4-(aminomethyl)-1H-1,2,3-triazol-1-yl)methyl)-5-fluorophenoxy)piperidin-1-yl) (3-cyclohexyl-4-(pyrrolidin-3-yloxy)phenyl) methanone dihydrochloride] | 132 ± 9.82 µM | 124 ± 13.4 µM |  |  |  |
| CC(=O)Nc1cc(F)cc(C(=O)N2CCN(C(=O)c3ccc(O[C@H]4CCNC4)c(C4CCCCC4)c3)C(C(=O)NCC(C)C)C2)c1 (stereo partly drawn) [Compound 23, 4-(3-Acetamido-5-fluorobenzoyl)-1-(3-cyclohexyl-4-(((S)-pyrrolidin-3-yl)oxy)benzoyl)-N-isobutylpiperazine-2-carboxamide trifluoroacetate] |  |  | > 1000 µM | > 1000 µM |  |
| CC(=O)Nc1cc(F)cc(C(=O)N2CCN(C(=O)c3ccc(O[C@H]4CCNC4)c(C4CCCCC4)c3)C(C(=O)NC3CCCCC3)C2)c1 (stereo partly drawn) [Compound 25, 4-(3-Acetamido-5-fluorobenzoyl)-N-cyclohexyl-1-(3-cyclohexyl-4-(((S)-pyrrolidin-3-yl)oxy)benzoyl) piperazine-2-carboxamide trifluoroacetate] |  |  | 390 ± 78 µM | > 1000 µM |  |
| CC(=O)Nc1cc(F)cc(C(=O)N2CCN(C(=O)c3ccc(O[C@H]4CCNC4)c(C4CCCCC4)c3)C(C(=O)NCCC(C)C)C2)c1 (stereo partly drawn) [Compound 24, 4-(3-Acetamido-5-fluorobenzoyl)-1-(3-cyclohexyl-4-(((S)-pyrrolidin-3-yl)oxy)benzoyl)-N-isopentylpiperazine-2-carboxamide trifluoroacetate] |  |  | 700 ± 130 µM | 540 ± 71 µM |  |

Further lines, with some results ahead:

| Ki [1] | Ki [2] | Ki [5] | Ki [6] | Compound | further results |
| --- | --- | --- | --- | --- | --- |
| 24.4 ± 3.18 µM | 25.9 ± 2.45 µM |  |  | NCCC(=O)Nc1cc(F)cc(OC2CCN(C(=O)c3ccc(OC4CCNC4)c(C4CCCCC4)c3)CC2)c1 (stereo not drawn) [Compound 5, 3-amino-N-(3-((1-(3-cyclohexyl-4-(pyrrolidin-3-yloxy)benzoyl)piperidin-4-yl)oxy)-5-fluorophenyl)propanamide dihydrochloride] |  |
|  |  | 130 ± 22 µM | 580 ± 83 µM | CC(=O)Nc1cc(F)cc(C(=O)N2CCN(C(=O)c3ccc(O[C@H]4CCNC4)c(C4CCCCC4)c3)C(C(=O)Nc3ccccc3)C2)c1 (stereo partly drawn) [Compound 27, 4-(3-Acetamido-5-fluorobenzoyl)-1-(3-cyclohexyl-4-(((S)-pyrrolidin-3-yl)oxy)benzoyl)-N-phenylpiperazine-2-carboxamide trifluoroacetate] |  |
| 162 ± 19.6 µM | 162 ± 17.4 µM |  |  | CC(C)(CN)C(=O)NCc1cc(F)cc(OC2CCN(C(=O)c3ccc(O[C@H]4CCNC4)c(C4CCCCC4)c3)CC2)c1 [Compound 8, (S)-3-amino-N-(3-((1-(3-cyclohexyl-4-(pyrrolidin-3-yloxy)benzoyl)piperidin-4-yl)oxy)-5-fluorobenzyl)-2,2-dimethylpropanamide dihydrochloride] |  |
| 12.3 ± 1.74 µM | 25.4 ± 2.43 µM |  |  | O=C(c1ccc(O[C@H]2CCNC2)c(C2CCCCC2)c1)N1CCC(Oc2cc(F)cc(N3CCNCC3)c2)CC1 [Compound 1, (S)-(3-cyclohexyl-4-(pyrrolidin-3-yloxy)phenyl) (4-(3-fluoro-5-(piperazin-1-yl)phenoxy)piperidin-1-yl) methanone dihydrochloride] |  |
|  |  | 190 ± 18 µM | 170 ± 29 µM | CCN(C)C(=O)C1CN(C(=O)c2cc(F)cc(NC(C)=O)c2)CCN1C(=O)c1ccc(O[C@H]2CCNC2)c(C2CCCCC2)c1 (stereo partly drawn) [Compound 20, 4-(3-Acetamido-5-fluorobenzoyl)-1-(3-cyclohexyl-4-(((S)-pyrrolidin-3-yl)oxy)benzoyl)-N-ethyl-N-methylpiperazine-2-carboxamide trifluoroacetate] |  |
| 56.9 ± 8.34 µM | 24.2 ± 2.7 µM |  |  | NCCCC(=O)Nc1cc(F)cc(OC2CCN(C(=O)c3ccc(OC4CCNC4)c(C4CCCCC4)c3)CC2)c1 (stereo not drawn) [Compound 6, 4-amino-N-(3-((1-(3-cyclohexyl-4-(pyrrolidin-3-yloxy)benzoyl)piperidin-4-yl)oxy)-5-fluorophenyl)butanamide dihydrochloride] |  |
|  |  | > 1000 µM |  | CNCc1cn(-c2cc(F)cc(C(=O)N3CCN(C(=O)c4ccc(O[C@H]5CCNC5)c(C5CCCCC5)c4)CC3)c2)nn1 [Compound 32, (S)-(4-(3-Cyclohexyl-4-(pyrrolidin-3-yloxy)benzoyl)piperazin-1-yl) (3-fluoro-5-(4-((methylamino)methyl)-1H-1,2,3-triazol-1-yl)phenyl) methanone dihydrochloride] |  |
